# PMC3534098 (PLoS ONE, 2012)
# Where two headings read alike, the source gives them in different places.
# Tests used:
# cytochrome bc 1 complex = biological target: cytochrome bc 1 complex; set-up: method as in PMID 6327677; details: high affinity binding site Qo; cited from earlier work
# M. tuberculosis H37Rv [1] = experiment: microbe, parasite or virus in culture; format: cell-based; details: Mycobacterium tuberculosis, read-out: MIC H37Rv
# [2] = system: M. bovis BCG strain Pasteur; experiment: microbe, parasite or virus in culture; format: cell-based; details: Mycobacterium tuberculosis variant bovis BCG, read-out: MIC M. bovis BCG
# [3] = system: Enterococcus faecium, Enterococcus faecalis, Haemophilus influenzae, Moraxella catarrhalis, Streptococcus pneumoniae, Escherichia coli and Streptococcus …; format: cell-based, Gram-positive and Gram-negative organisms
# [4] = system: L1210, HepG2, NEURO 2A, MDCK and H9C2(2-1)
# [5] = not given; remark: listed apart in the source
# in vitro [6] = details: mouse, microsomes, pH 7.4
# in vitro [7] = details: human, microsomes, pH 7.4
# [8] = Whole blood pharmacokinetics after oral administration in mice; format: in vivo, C57BL/6 female mice; details: female, mouse, oral 50 mg/kg suspension in 1% aqueous methylcellulose
# Protocol: (§1) For pharmacokinetic studies C57BL/6 female mice of 18–20 g weight were used. Experimental compounds were administered through oral gavage at 50 mg/kg dose at a concentration of 20 ml/kg. All mice received treatment in the fed state. Peripheral total blood was the compartment chosen for the establishment of compound concentrations. Drugs were administered as 1% methyl cellulose suspensions and the blood sampling scheme was: 15, 30 and 45 minutes, 1, 1.5, 2, 3, 4, 8 and 24 hours. At each time-point, blood from 4 different animals was obtained. LC-MS was used as the analytical method of choice for the establishment of compound concentration in blood with a sensitivity of LLQ = 1–5 ng/ml in […]. The non-compartmental data analysis was performed with WinNonlin 5.0 and supplementary analysis was performed with GraphPad 4 software. Dose-response studies in an acute murine infection TB model were carried out as previously described.
# Figure 2 Whole blood pharmacokinetic profile and main parameters of IP 3 after oral administration of a 50 mg/kg suspension in 1% aqueous methylcellulose.
# M. tuberculosis H37Rv [9] = experiment: Dose response efficacy in acute murine model of TB infection; format: in vivo, B6 mice
# Protocol: as §1
# Figure 3 Therapeutic efficacy of anti-tubercular IP 3 against M. tuberculosis H37Rv in vivo. B6 mice were infected by intra-tracheal instillation with 10^5 cfu M. tuberculosis H37Rv per mouse. The mice were treated with the anti-tubercular orally once a day from day 1 to day 8. Efficacy results are expressed as log cfu reduction in the lungs of infected mice and are the mean±SD of five mice. The shaded line indicates the levels of administered mycobacterial inoculum.
# M. tuberculosis Beijing = experiment: microbe, parasite or virus in culture; format: cell-based; details: Mycobacterium tuberculosis, read-out: MIC Beijing
# M. tuberculosis inh233 = experiment: microbe, parasite or virus in culture; format: cell-based; details: Mycobacterium tuberculosis, INH233, read-out: MIC inh233
# M. tuberculosis CDC1551 = experiment: microbe, parasite or virus in culture; format: cell-based; details: Mycobacterium tuberculosis, CDC1551, read-out: MIC CDC1551
SMILES,MIC (M. tuberculosis H37Rv [1]),MIC [2],MIC Anti-bacterial panel [3],Tox50 Cell lines [4],"Mouse CLint (mouse, microsomes)","Human CLint ([5]; human, microsomes)",half-life (in vitro [6]),half-life (in vitro [7]),MIC (M. tuberculosis Beijing),MIC (M. tuberculosis inh233),MIC (M. tuberculosis CDC1551),Mouse CLint (mouse liver microsomes),Human CLint ([5]; human liver microsomes),half-life at 0.5 mM (in vitro [6]),other results
"CO/C(=C/C(N)=O)[C@H](C)[C@H](/C=C/c1csc(-c2csc([C@@H](C)/C=C/C=C/C(C)C)n2)n1)OC [Myxothiazol, myxothiazol]",–,–,–,–,–,–,–,–,–,–,–,–,–,–,Kd (cytochrome bc 1 complex): < 1 nM
"Cc1ccc2nc(C)c(C(=O)NCc3ccc(Cl)nc3)n2c1 [IP 4, N-((6-Chloropyridin-3-yl)methyl)-2,6-dimethylimidazo[1,2-a]pyridine-3-carboxamide]",5 µM,5 µM,all>16 µM,all>50 µM,7.4 ml/min/gprotein,2.3 ml/min/gprotein,11.4 min,> 30 min,–,–,–,–,–,–,–
"Cc1ccc2nc(C)c(C(=O)NCc3ccc(C(F)(F)F)cc3)n2c1 [IP 3, 2,6-Dimethyl-N-(4-(trifluoromethyl)benzyl)imidazo[1,2-a]pyridine-3-carboxamide]",0.03 µM,0.5 µM,all>16 µM,all>25 µM,7 ml/min/gprotein,4.9 ml/min/gprotein,11.6 min,15.8 min,–,–,–,–,–,–,"bioavailability ([8]; C57BL/6, whole blood, read-out: F (percentage bioavailability)): 61%; AUC ([8]; C57BL/6, whole blood, read-out: AUC (Area Under the Curve) (0–8 hours)): 4360 ng·h/mL; Cmax ([8]; C57BL/6, whole blood, read-out: Cmax (maximum concentration observed in whole blood)): 3400 ng/mL; log cfu reduction with respect to non-treated controls (M. tuberculosis H37Rv [9]; 300 mg/kg orally once a day from day 1 to day 8, lungs of infected mice): 2 log cfu; log cfu reduction with respect to non-treated controls (M. tuberculosis H37Rv [9]; 500 mg/kg orally once a day from day 1 to day 8, lungs of infected mice): 2 log cfu; behavior in vivo (M. tuberculosis H37Rv [9]; acute murine model of TB infection): bacteriostatic; signs of toxicity (M. tuberculosis H37Rv [9]; any of the administered doses, mice): No signs of toxicity"
Cc1ccc2nc(C(F)(F)F)c(C(=O)NCc3cccc(Cl)c3)n2c1 [IP 2],0.2 µM,–,all>16 µM,all>50 µM,–,–,–,–,0.06 µM,0.03 µM,0.06 µM,>30 ml/min/gprotein,>30 ml/min/gprotein,< 3 min,half-life at 0.5 mM (in vitro [7]): < 3 min
Cc1ccc2nc(C)c(C(=O)NCc3cccs3)n2c1 [IP 1],0.2 µM,1 µM,all>64 µM,all>25 µM,–,–,–,–,0.03 µM,0.03 µM,0.06 µM,>30 ml/min/gprotein,3.9 ml/min/gprotein,< 3 min,–
